{"source": "paper PMC6571972", "about": "(Pharmaceutics, 2019)", "key": {"[1]": {"molecular_target": "T1, human SSTR2 (Homo sapiens, UniProt P30874)", "T1 construct": "membrane extract (recombinant CHO-K1-SST2 (NP_001041.1), 25 µL, 0.2 µg); expressed in transfected cells; host or cells: CHO-K1", "T1 sequence (P30874 whole entry)": "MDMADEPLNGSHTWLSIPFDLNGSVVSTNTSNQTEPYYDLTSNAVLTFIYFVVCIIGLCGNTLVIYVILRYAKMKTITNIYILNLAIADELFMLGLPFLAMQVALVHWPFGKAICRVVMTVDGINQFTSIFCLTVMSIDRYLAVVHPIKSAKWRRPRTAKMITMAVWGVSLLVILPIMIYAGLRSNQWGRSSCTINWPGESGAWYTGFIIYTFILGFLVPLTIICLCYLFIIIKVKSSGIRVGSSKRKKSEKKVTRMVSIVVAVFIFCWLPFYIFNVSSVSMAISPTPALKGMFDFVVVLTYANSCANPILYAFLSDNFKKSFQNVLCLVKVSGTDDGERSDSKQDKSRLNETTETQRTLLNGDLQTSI", "assay": "radioligand binding competition assay with SSTR2 membrane extract", "conditions": "competition with 3-[125I] iodotyrosyl11 Somatostatin 14, CHO-K1-SST2 membranes", "experimental": "The dilution of test compound (50 µL, maximum final DMSO concentration 3%), radioligand 3-[125I] iodotyrosyl11 Somatostatin 14 (Perkin Elmer, NEX389, 25 µL, 0.4 nM), and membrane extract (recombinant CHO-K1-SST2 (NP_001041.1), 25 µL, 0.2 µg) were successively added to a 96-well plate and then incubated at 25 °C for 60 min. It was filtered over GF/B Unifilter plate (Perkin Elmer, 6005177, pre-soaked in 0.5% PEI for 2 h at room temperature) with a Filtermate Harvester (Perkin Elmer). After rinsing the filters six times with 0.5 mL of ice-cold washing buffer (25 mM HEPES pH 7.4, 5 mM MgCl2, 1 mM CaCl2), 50 µL of Microscint 20 (Packard) was added to the filters and the samples were incubated 15 min on an orbital shaker and then counted with a TopCount™ for 1 min/well. The binding affinity was determined in duplicates by plotting the dose-response data to a nonlinear regression with variable slope."}, "[2]": {"system": "AtT20/D16v-F2 murine pituitary tumor cells", "assay": "in vitro cytotoxicity, MTT assay", "assay_type": "cell-based", "experimental": "In vitro cytotoxicity: To evaluate the cytotoxicity of conjugates and metabolites, AtT20/D16v-F2 murine pituitary tumor cells obtained from American Type Culture Collection (ATCC, Bethesda, MD, USA) were used. Cell viability was determined using the MTT (3-(4,5-dimethyl thiaz ol-2-yl)-2,5-diphenyltetrazolium bromide) assay. Briefly, cells in DMEM supplemented with 10% FBS, 1% L-glutamine, and 1% penicillin/streptomycin were seeded in 96-well culture plates (3000 cells/well) and incubated overnight in a humidified, 37 °C, 5% CO2 atmosphere to allow for adherence. The following day, cells were treated with serial dilutions of each compound starting at 100 nM for free drugs and 1000 nM for each one of the conjugates and incubated as described for 2 h. 0.1% DMSO served as a control. After incubation, the cells were washed once, media replaced, and incubation continued for further 70 h. At the end of treatment, 5 µL of MTT solution (5 mg/mL in deionized H2O, Sigma #M5655) was added to each well and the cells were incubated for another 2 h. Finally, 100 µL of lysis buffer (10% SDS, 10 mM HCl) was added, and the cells were placed in the incubator overnight for the formazan crystal solubilization. Absorbance at 540 nm was measured using a FLUOstar Omega (BMG Labtech) microplate reader and the growth inhibition ratio was calculated. Blank controls detecting cell-free media absorbance were performed in parallel. Three experimental replicates were used. The half-maximal inhibitory concentration values (IC50) were obtained from viability curves while using GraphPad Prism 6. Cell viability was expressed as percentage relative to the respective control conditions."}, "[3]": {"assay": "plasma stability in murine plasma", "assay_type": "in vitro ADME", "conditions": "mouse, 37 °C, read-out: Plasma Stability (t1/2 in h) Murine (converted)", "experimental": "(§1) Plasma stability: The sample preparation and the metabolic analysis of the conjugates was carried out similarly to the previously described method. Shortly, in a 96-well plate each conjugate and the control compound, procaine (3 mM, stock solution in DMSO) in three replicates were diluted with 250 μL of plasma to give a 3 µM concentration and then incubated at 37 °C. At each sample collecting time point, an aliquot of 30 µL was transferred into a 96-deep well plate and the reaction was stopped with 120 µL of acetonitrile containing 0.1% formic acid and 0.4 µg/mL of warfarin as the internal standard (IS). This mixture was centrifuged at 1100 ×g for 30 min at 4 °C and 50 µL of supernatant was transferred into a clean 96 deep-well plate and diluted with 50 µL of 0.1% formic acid in water. The samples were stored at -80 °C until analyses. Stability was determined based on LC-HRMS analysis of the disappearance of the compound as a function of incubation time, while using area ratio (analyte peak area vs internal standard peak area). The elimination constant k is calculated by plotting mean disappearance values on a semi-logarithmic scale and fitting with a best fit linear regression. The half-life (t1/2) expressed in hours is derived using the equation: t1/2 = ln2/(−k)."}, "[4]": {"assay": "plasma stability in human plasma", "assay_type": "in vitro ADME", "conditions": "37 °C, read-out: Plasma Stability (t1/2 in h) Human (converted)", "experimental": "as §1"}, "[5]": {"system": "AtT20 cells", "assay": "live cell confocal microscopy, conjugate internalization in AtT20 cells", "assay_type": "cell-based, murine"}, "[6]": {"system": "A549 cells", "assay": "live cell confocal microscopy, conjugate internalization in A549 cells", "assay_type": "cell-based, human", "conditions": "A549 cells with low levels of SSTR2, 1 µM"}, "[7]": {"system": "AtT20 xenografts", "assay": "in vivo tumor targeting, whole body imaging", "set-up": "species or system nude mice", "conditions": "1 mg/kg i.v.", "experimental": "Tumor targeting studies: The fluorescence-labeled conjugate 10 (1 mg/kg in 2% DMSO in water) was intravenously injected in nude mice bearing AtT20 tumors. At each time point, whole body imaging was acquired using the Lago optical imaging system (Spectral Instruments Imaging), while mice were under isoflurane anesthesia (2.5%/20% O2).\nFigure S1. Confocal microscopy images from conjugate 10 in SSTR2 positive cell line […]\nAnimal experiments were approved by the Committee for Animal Experiments of the […]\nFor in vivo tumor targeting and antitumor efficacy experiments, three million AtT20/D16v-F2 murine pituitary tumor cells in 100 µL PBS/Matrigel (v/v) were xenografted in the right flank of four-weeks-old female BALB/c nude mice (BALB/cAnNRj-Foxn1nu/nu, Janvier Labs). The experiments started around 15 days after implantation, when the animals started to show physical signs of the hormone releasing […]"}, "[8]": {"conditions": "mouse; cited from earlier work"}, "[9]": {"conditions": "cited from earlier work"}}, "note": "Where two headings read alike, the source gives them in different places."}
{"smiles": "COc1ccc(C[C@H]2NC(=O)/C=C/C[C@@H]([C@H](C)[C@@H](OC(=O)CNC(=O)CNC(=O)[C@@H]3CCCN3C(=O)[C@H](CCCNC(N)=O)NC(=O)[C@@H](NC(=O)CCOCCOCCOCCOCCn3cc(CCC(=O)N[C@H](Cc4ccccc4)C(=O)N[C@H]4CSSC[C@@H](C(=O)N[C@H](CO)[C@@H](C)O)NC(=O)[C@H]([C@@H](C)O)NC(=O)[C@H](CCCCN)NC(=O)[C@@H](Cc5c[nH]c6ccccc56)NC(=O)[C@H](Cc5ccccc5)NC4=O)nn3)C(C)C)[C@@H](Cl)c3ccccc3)OC(=O)[C@H](CC(C)C)OC(=O)C(C)(C)CNC2=O)cc1Cl", "note": "[compound 7]", "values": [{"measurement": "IC50", "setting": "[1]; read-out: Binding Affinity (IC50 in nM)", "value": 0.6, "unit": "nM"}, {"measurement": "IC50", "setting": "[2]; 2 h treatment, wash, further 70 h, MTT, read-out: Cytotoxicity in AtT20 (IC50 in nM)", "value": 51.2, "unit": "nM"}, {"measurement": "half-life at 3 µM", "setting": "[3]", "value": 0.5, "unit": "h"}, {"measurement": "half-life at 3 µM", "setting": "[4]", "value": 23, "unit": "h"}]}
{"smiles": "CC(C)[C@H](NC(=O)CCOCCOCCOCCOCCn1cc(CCC(=O)N[C@H](Cc2ccccc2)C(=O)N[C@H]2CSSC[C@@H](C(=O)N[C@H](CO)[C@@H](C)O)NC(=O)[C@H]([C@@H](C)O)NC(=O)[C@H](CCCCN)NC(=O)[C@@H](Cc3c[nH]c4ccccc34)NC(=O)[C@H](Cc3ccccc3)NC2=O)nn1)C(=O)N[C@@H](CCCNC(N)=O)C(=O)NCC(=O)N1CCC[C@H]1C(=O)NCCCCCCNC(=O)CCCCC[N+]1=C(/C=C/C=C/C=C2N(C)c3ccc4ccccc4c3C2(C)C)C(C)(C)c2c1ccc1ccccc21", "note": "[compound 10]", "values": [{"measurement": "Binding Affinity (IC50 in nM)", "setting": "[1]", "value": "low nanomolar IC50"}, {"measurement": "internalization of the conjugate with excess free ligand", "setting": "[5]; AtT20 cells, 100-fold excess of free octreotide", "value": "could be efficiently competed"}, {"measurement": "internalization of the conjugate", "setting": "[5]; SSTR2 expressing AtT20 cells, 1 µM, after 10 min", "value": "effective internalization"}, {"measurement": "internalization of the conjugate", "setting": "[6]", "value": "no internalization was observed"}, {"measurement": "accumulation in the tumor", "setting": "[7]; AtT20 xenografts", "value": "preferential accumulation"}, {"measurement": "duration of detection in tumor", "setting": "[7]; tumors around 50 mm^3", "value": "up to seven"}]}
{"smiles": "COc1ccc(C[C@H]2NC(=O)/C=C/C[C@@H]([C@H](C)[C@@H](OC(=O)CNC(=O)[C@@H]3CCCN3C(=O)CN)[C@@H](Cl)c3ccccc3)OC(=O)[C@H](CC(C)C)OC(=O)C(C)(C)CNC2=O)cc1Cl", "note": "[Gly-Pro-Cry-55gly]", "values": [{"measurement": "IC50", "setting": "[2]; Mus musculus, AtT20, 2 h treatment, wash, further 70 h, MTT, read-out: Cytotoxicity in AtT20 (IC50 in nM)", "value": 6.05, "unit": "nM"}]}
{"smiles": "COc1ccc(C[C@H]2NC(=O)/C=C/C[C@@H]([C@H](C)[C@@H](OC(=O)CN)[C@@H](Cl)c3ccccc3)OC(=O)[C@H](CC(C)C)OC(=O)C(C)(C)CNC2=O)cc1Cl", "note": "[compound 3, cryptophycin-55 glycinate]", "values": [{"measurement": "IC50", "setting": "[2]; Mus musculus, AtT20, read-out: Cytotoxicity in AtT20 (IC50 in nM)", "value": 3.53, "unit": "nM"}, {"measurement": "Plasma Stability (t1/2 in h) Murine", "setting": "[8]", "value": "> 24 [48] h"}, {"measurement": "Plasma Stability (t1/2 in h) Human", "setting": "[9]", "value": "> 24 [48] h"}]}
